Where no end group is shown, it is not given here.
Assays:
α-SMA mRNA = assay: RT-PCR of α-SMA mRNA expression in HSC; type: cell-based, SD rat; settings: after 48 hours, FIG. 4
Method: (§1) HSC from SD rats were separated using centrifuging on gradient created by Pronase-collagenase and Nycodenz. HSC cells at 1.5×10^5/cm2 was plated at 6-well plate, or culture dish (100 mm diameter). The culture medium is DMEM with 20% serum from newborn calf. The purity of HSC cells was determined using Vitamin A self-fluorescence and anti-Desmin immunocytochemistry experiments. Cell viability was determined using trypan blue staining. First generation HSC's purity and viability were 90% and 95% respectively. HSC can self-activate if grown in non-ECM condition, which means HSC can express α-SMA, and Vitamin A drop disappears. After cell fusion, activated HSC is released with trypsin, and propagate.
Use Trizol reagent to extract total RNA, then conduct two-step RT-PCR according to kit instructions.

α-SMA protein = assay: Western blot of α-SMA protein expression in HSC; type: cell-based, SD rat; settings: FIG. 5
Method: as §1
Collect cells and add cell lysis buffer, extract total protein. Total protein amount was determined using Bradford assay. 40 μg total protein was examined using 10% SDS polyacrylamide gel. The gel was probed using monoclonal antibody against α-SMA.

[1] = test system: Rat CC14 liver damage model; assay: Rat CC14 liver damage model (chronic liver fibrosis); type: in vivo, SD rat; parameters: Liver parameters: unit not given here
Method: To evaluate the protective effect of peptide SEQ ID NO:1 on liver damage, we used chronic liver fibrosis model (rat CC14 model) for efficacy evaluation.
Rat CC14 liver damage model
(1) Control group: saline, sc, 2 ml/kg, 10 rats
(2) model group: 40% CC14, sc, 2 ml/kg, 17 rats
(3) Gan-li-xin group: 25 mg/kg, iv, 10 ml/kg, 15 rats
(4) Prevention, high dose group: 50 μg peptide SEQ ID NO:1/kg, iv, 10 ml/kg, 17 rats
(5) Prevention, low dose group: 10 μg peptide SEQ ID NO:1/kg, iv, 10 ml/kg, 17 rats
(6) Treatment, high dose group: 100 μg peptide SEQ ID NO:1/kg, iv, 10 ml/kg, 17 rats
(7) Treatment, high dose group: 20 μg peptide SEQ ID NO:1/kg, iv, 10 ml/kg, 17 rats
Except for control group, inject 40% CC14 subcutaneously twice (Tuesday, and Friday) every week in Group (2) to (6), drug volume (0.2 ml/100 g, the first time 0.5 ml/100 g). CC14 Model construction is 6 weeks. Parallel to the model construction, inject intravenously peptide SEQ ID NO:1 at 50 μg/kg and 10 μg/kg in group (4) and (5), respectively, once a day for 6 weeks. For Group (3), (6), and (7), starting from week 5, inject Gan-li-xin 25 mg/kg, peptide SEQ ID NO:1 at 100 μg/kg and 20 μg/kg, respectively, once a day, continuously for 2 weeks.
All rats were weighed once a week during model construction and drug injection. According to weight, the dose of drugs is adjusted. 24 hours after the last time of CC14 injection, liver weight parameters were examined.
Blood was extracted from femoral artery and serum was separated. The following parameters were examined: serum alanine aminotransferase (ALT), aspartate aminotransferase (AST), Bilirubin (TB), Alkaline phosphatase (ALP), total protein (TP), albumin (ALB), globulin (G), albumin/globulin ratio (A/G), glucose (GLU), total cholesterol (TCH), triglyceride (TG).
Liver homogenate: to examine cholesterol (TCH), triglyceride (TG), alanine aminotransferase (ALT), and aspartate aminotransferase (AST).
[…], dry at 110 C, examine Hydroxyproline (HPA).
Part of the liver is fixed in formalin for histology examination.

[2] = Prevention, High dose 50 μg/kg iv, once a day for 6 weeks
[3] = Prevention, low dose 10 μg/kg iv, once a day for 6 weeks
[4] = Treatment, High dose 100 μg/kg iv, once a day for 2 weeks from week 5
[5] = Treatment, low dose 20 μg/kg iv, once a day for 2 weeks from week 5

Substance: SKVTKKYHEVLQLRPKTGVRGLHKSLTDVALEHHEECDCVCRGSTGG-OH (cysteines drawn unpaired) [Peptide SEQ ID NO:1]
- α-SMA mRNA expression (RT-PCR) (α-SMA mRNA): inhibits α-SMA mRNA expression
- α-SMA protein expression (Western Blot) (α-SMA protein; after 48 hours): starts to decrease α-SMA protein expression
- α-SMA protein expression (Western Blot) (α-SMA protein; after 72 hours): significantly decrease α-SMA protein expression
- ALB (albumin), serum [1, 2]: 20.8 ± 2.0 g/L
- ALP (alkaline phosphatase), serum [1, 2]: 266.3 ± 85.7 IU/L
- ALT (alanine aminotransferase), serum [1, 2]: 75 ± 29.4 IU/L
- AST (aspartate aminotransferase), serum [1, 2]: 236.8 ± 27.2 IU/L
- Bilirubin, serum [1, 2]: 3.3 ± 0.1 µmol/L
- GLU (glucose), serum [1, 2]: 6.5 ± 0.9 mmol/L
- Liver parameters [1, 2]: 4.3 ± 0.4
- Liver weight [1, 2]: 12.1 ± 2.5 g
- TCH (total cholesterol), serum [1, 2]: 1.9 ± 0.3 mmol/L
- TG (triglyceride), serum [1, 2]: 0.6 ± 0.1 mmol/L
- TP (total protein), serum [1, 2]: 68.3 ± 4.1 g/L
- hydroxyproline amount in rat liver [1, 2]: 0.216 ± 0.062 ug/mg wet weight
- ALB (albumin), serum [1, 3]: 18.8 ± 2.4 g/L
- ALP (alkaline phosphatase), serum [1, 3]: 304.3 ± 90.4 IU/L
- ALT (alanine aminotransferase), serum [1, 3]: 80.6 ± 21.3 IU/L
- AST (aspartate aminotransferase), serum [1, 3]: 248.8 ± 38.3 IU/L
- Bilirubin, serum [1, 3]: 3.3 ± 0.5 µmol/L
- GLU (glucose), serum [1, 3]: 6.2 ± 0.7 mmol/L
- Liver parameters [1, 3]: 4.1 ± 0.4
- Liver weight [1, 3]: 11.3 ± 2.5 g
- TCH (total cholesterol), serum [1, 3]: 1.6 ± 0.3 mmol/L
- TG (triglyceride), serum [1, 3]: 0.6 ± 0.2 mmol/L
- TP (total protein), serum [1, 3]: 66.4 ± 4.6 g/L
- hydroxyproline amount in rat liver [1, 3]: 0.192 ± 0.045 ug/mg wet weight
- ALB (albumin), serum [1, 4]: 19.7 ± 3.7 g/L
- ALP (alkaline phosphatase), serum [1, 4]: 216.5 ± 91.0 IU/L
- ALT (alanine aminotransferase), serum [1, 4]: 69.8 ± 31.3 IU/L
- AST (aspartate aminotransferase), serum [1, 4]: 219.6 ± 56.7 IU/L
- Bilirubin, serum [1, 4]: 2.9 ± 0.4 µmol/L
- GLU (glucose), serum [1, 4]: 6.3 ± 1.0 mmol/L
- Liver parameters [1, 4]: 4.0 ± 0.5
- Liver weight [1, 4]: 10.1 ± 3.2 g
- TCH (total cholesterol), serum [1, 4]: 2.1 ± 0.8 mmol/L
- TG (triglyceride), serum [1, 4]: 0.5 ± 0.2 mmol/L
- TP (total protein), serum [1, 4]: 70.4 ± 4.4 g/L
- hydroxyproline amount in rat liver [1, 4]: 0.165 ± 0.038 ug/mg wet weight
- ALB (albumin), serum [1, 5]: 18.8 ± 2.5 g/L
- ALP (alkaline phosphatase), serum [1, 5]: 357.1 ± 120.7 IU/L
- ALT (alanine aminotransferase), serum [1, 5]: 90.9 ± 37.3 IU/L
- AST (aspartate aminotransferase), serum [1, 5]: 260.0 ± 73.1 IU/L
- Bilirubin, serum [1, 5]: 3.3 ± 0.8 µmol/L
- GLU (glucose), serum [1, 5]: 6.1 ± 0.9 mmol/L
- Liver parameters [1, 5]: 4.4 ± 0.8
- Liver weight [1, 5]: 12.9 ± 4.7 g
- TCH (total cholesterol), serum [1, 5]: 1.6 ± 0.5 mmol/L
- TG (triglyceride), serum [1, 5]: 0.5 ± 0.2 mmol/L
- TP (total protein), serum [1, 5]: 69.1 ± 6.1 g/L
- hydroxyproline amount in rat liver [1, 5]: 0.222 ± 0.048 ug/mg wet weight
- steatosis and fat cavities in liver cells (histology) ([1]; prevention high dose group, 3 cases): 50-60%
- steatosis and fat cavities in liver cells (histology) ([1]; prevention high dose group, 5 cases): 60-80%
- steatosis and fat cavities in liver cells (histology) ([1]; prevention low dose group, all cases): 60-80%
- liver damage caused by CC14 in rat (summary) ([1]; serum biochemical parameters, liver hydroxyproline amount, liver pathological features): can improve liver damage caused by CC14 in rat
- steatosis and fat cavities in liver cells (histology) ([1]; treatment high dose group, 2 cases): Over 80%
- steatosis and fat cavities in liver cells (histology) ([1]; treatment high dose group, 2 cases with less steatosis): 50-60%
- steatosis and fat cavities in liver cells (histology) ([1]; treatment high dose group, 4 cases with even less steatosis): < 30%
